Experimental findings from patent publication US11161830B2, “4-pyridone compound or salt thereof, and pharmaceutical composition and formulation including same” (priority 2017, dated 2021) are described below.

Where “and” joins values, the source holds several entries; their conditions need not be identical. Equal entries are not always repeated.

The experiment deals with HBV genotype C. As to the kind of experiment: Test Example 3-2: in vivo efficacy study in PXB mouse (chimeric mouse with human hepatocytes), first and second study. Also noted: species or system hepatitis B virus. Particulars: second study, orally 3 mg/kg twice a day for 14 days from day 35, individual mice, 3 mg/kg. The protocol: An in vivo efficacy study with a PXB mouse (a chimeric mouse with human hepatocytes) was carried out in PhenixBio Co., Ltd. 19-Week-or-more-old male mice having body weights of 10.5 g or more after the elapse of 13 weeks or more from the infection with HBV genotype C were allocated into the respective groups and used. The studies were carried out twice, and a 21-day administration withdrawal period was provided between the first study and the second study.
The first administration day in the first study was taken as day 0, and the compound of Example 6-5 was orally administered at 1 mg/kg, 3 mg/kg, 10 mg/kg, and 30 mg/kg twice a day, or 0.5% methylcellulose (vehicle) was orally administered once a day for 14 days. Before administration on day 0, day 3, Day 7, and day 10, and on day 14, the blood was collected from the orbital venous plexus under anesthesia with isoflurane.
The first administration day in the second study was taken as day 35, and the compounds of Examples 19-2 and 20-2 were each orally administered at 3 mg/kg twice a day, or 0.5% methylcellulose (vehicle) was orally administered once a day for 14 days. Before administration on day 35, day 38, day 42, and day 45, the blood was collected from the orbital venous plexus under anesthesia with isoflurane. On day 49, the blood was collected from the heart under anesthesia with isoflurane.
The serum was separated from the collected blood and purified with a QIAamp (registered trademark) DNA Blood Mini Kit (manufactured by QIAGEN). The amount of HBV-DNA in the obtained solution was absolutely quantified by a real-time PCR method. In addition, the amount of HBsAg in the serum was absolutely quantified by chemiluminescent enzyme immunoassay using Lumipulse (registered trademark) HBsAg-HQ (manufactured by Fujirebio Inc.).

As for `COCCO[C@@H]1CCN(c2ccc(-c3cc(=O)c(C(=O)O)cn3-c3ccc4nc(N5CCC[C@@H]5COC)sc4c3)cc2)C1` [Example 19-2, 6-(4-((R)-3-(2-methoxyethoxy)pyrrolidin-1-yl)phenyl)-1-(2-((R)-2-(methoxymethyl)pyrrolidin-1-yl)benzo[d]thiazol-6-yl)-4-oxo-1,4-dihydropyridine-3-carboxylic acid], the HBV-DNA in blood is 6.1E+08 copies/mL and 3.7E+08 copies/mL (Day 35 (before administration)); 2.1E+08 copies/mL and 6.2E+08 copies/mL (Day 38); 3.3E+08 copies/mL and 2.5E+08 copies/mL (Day 42); 4.2E+08 copies/mL and 3.0E+08 copies/mL (Day 45); 1.4E+08 copies/mL and 1.8E+08 copies/mL (Day 49). Also, the HBsAg in serum runs as follows: (Day 35 (before administration)) 1,872 IU/mL and 2,473 IU/mL; (Day 38) 968 IU/mL and 2,558 IU/mL; (Day 42) 992 IU/mL and 1,238 IU/mL; (Day 45) 1,548 IU/mL and 1,644 IU/mL; (Day 49) 1,509 IU/mL and 1,348 IU/mL.
